Laboratory results from ChEMBL document CHEMBL1275354, “Anticonvulsant activity of 2,4(1H)-diarylimidazoles in mice and rats acute seizure models” (Bioorg Med Chem, 2010).
Calls of active or inactive are those of the source. No cut-off for these calls is given here.

What was measured:
[1] = test system: Mus musculus; assay: Neurotoxicity in ip dosed albino CF1 mouse assessed as minimum dose required to cause toxicity after 0.5 hrs by rotarod test; type: organism-based; details: in vivo
[2] = test system: Mus musculus; assay: Neurotoxicity in albino CF1 mouse assessed as minimal motor impairment at 30 mg/kg, ip after 0.5 hrs by rotarod test; type: toxicity, organism-based; design: dose 30 mg/kg, route intraperitoneal; details: in vivo
[3] = test system: Mus musculus; assay: Anticonvulsant activity in albino CF1 mouse assessed as protection against maximal electroshock-induced seizures at 100 mg/kg, ip after 0.5 hrs; type: functional, organism-based; design: dose 100 mg/kg
[4] = test system: Mus musculus; assay: Anticonvulsant activity against subcutaneous metrazole-induced seizures in ip dosed albino CF1 mouse assessed as minimum effective dose after 4 hrs; type: functional; details: albino CF1, 4 h, read-out: MED
[5] = test system: Mus musculus; assay: Neurotoxicity in albino CF1 mouse assessed as minimal motor impairment at 30 mg/kg, ip after 4 hrs by rotarod test; type: toxicity, organism-based; design: dose 30 mg/kg, route intraperitoneal; details: in vivo
[6] = test system: Mus musculus; assay: Neurotoxicity in albino CF1 mouse assessed as minimal motor impairment at 100 mg/kg, ip after 0.5 hrs by rotarod test; type: toxicity, organism-based; design: dose 100 mg/kg, route intraperitoneal; details: in vivo
[7] = test system: Mus musculus; assay: Neurotoxicity in albino CF1 mouse assessed as minimal motor impairment at 100 mg/kg, ip after 4 hrs by rotarod test; type: toxicity, organism-based; design: dose 100 mg/kg, route intraperitoneal; details: in vivo
[8] = test system: Mus musculus; assay: Neurotoxicity in albino CF1 mouse assessed as minimal motor impairment at 300 mg/kg, ip after 0.5 hrs by rotarod test; type: toxicity, organism-based; design: dose 300 mg/kg, route intraperitoneal; details: in vivo
[9] = test system: Mus musculus; assay: Neurotoxicity in albino CF1 mouse assessed as minimal motor impairment at 300 mg/kg, ip after 4 hrs by rotarod test; type: toxicity, organism-based; design: dose 300 mg/kg, route intraperitoneal; details: in vivo
[10] = test system: Mus musculus; assay: Anticonvulsant activity in albino CF1 mouse assessed as protection against maximal electroshock-induced seizures at 300 mg/kg, ip after 0.5 hrs; type: functional, organism-based; design: dose 300 mg/kg
[11] = test system: Mus musculus; assay: Anticonvulsant activity in albino CF1 mouse assessed as protection against maximal electroshock-induced seizures at 300 mg/kg, ip after 4 hrs; type: functional, organism-based; design: dose 300 mg/kg
[12] = test system: Mus musculus; assay: Anticonvulsant activity in albino CF1 mouse assessed as protection against subcutaneous metrazole-induced seizures at 30 mg/kg, ip after 0.5 hrs; type: functional, organism-based; design: dose 30 mg/kg
[13] = test system: Mus musculus; assay: Anticonvulsant activity in albino CF1 mouse assessed as protection against subcutaneous metrazole-induced seizures at 30 mg/kg, ip after 4 hrs; type: functional, organism-based; design: dose 30 mg/kg
[14] = test system: Mus musculus; assay: Anticonvulsant activity in albino CF1 mouse assessed as protection against subcutaneous metrazole-induced seizures at 100 mg/kg, ip after 0.5 hrs; type: functional, organism-based; design: dose 100 mg/kg
[15] = test system: Mus musculus; assay: Anticonvulsant activity in albino CF1 mouse assessed as protection against subcutaneous metrazole-induced seizures at 100 mg/kg, ip after 4 hrs; type: functional, organism-based; design: dose 100 mg/kg
[16] = test system: Mus musculus; assay: Anticonvulsant activity in albino CF1 mouse assessed as protection against subcutaneous metrazole-induced seizures at 300 mg/kg, ip after 0.5 hrs; type: functional, organism-based; design: dose 300 mg/kg
[17] = test system: Mus musculus; assay: Anticonvulsant activity in albino CF1 mouse assessed as protection against subcutaneous metrazole-induced seizures at 300 mg/kg, ip after 4 hrs; type: functional, organism-based; design: dose 300 mg/kg
[18] = test system: Mus musculus; assay: Neurotoxicity in albino CF1 mouse assessed as minimal motor impairment at 30 to 300 mg/kg, po after 4 hrs by rotarod test; type: toxicity, organism-based; design: dose 30-300 mg/kg, route oral; details: in vivo
[19] = test system: Mus musculus; assay: Anticonvulsant activity in albino CF1 mouse assessed as protection against maximal electroshock-induced seizures at 30 mg/kg, ip after 4 hrs; type: functional, organism-based; design: dose 30 mg/kg
[20] = test system: Mus musculus; assay: Neurotoxicity in ip dosed albino CF1 mouse assessed as minimum dose required to cause toxicity after 4 hrs by rotarod test; type: organism-based; details: in vivo
[21] = test system: Mus musculus; assay: Anticonvulsant activity against maximal electroshock-induced seizures in ip dosed albino CF1 mouse assessed as minimum effective dose after 0.5 hrs; type: functional; details: read-out: MED
[22] = test system: Mus musculus; assay: Anticonvulsant activity against maximal electroshock-induced seizures in ip dosed albino CF1 mouse assessed as minimum effective dose after 4 hrs; type: functional; details: read-out: MED
[23] = test system: Mus musculus; assay: Anticonvulsant activity against subcutaneous metrazole-induced seizures in ip dosed albino CF1 mouse assessed as minimum effective dose after 0.5 hrs; type: functional; details: albino CF1, 0.5 h, read-out: MED
[24] = test system: Mus musculus; assay: Neurotoxicity in albino CF1 mouse assessed as minimal motor impairment at 30 to 300 mg/kg, ip after 0.5 hrs by rotarod test; details: in vivo
[25] = test system: Rattus norvegicus; assay: Neurotoxicity in albino Sprague-Dawley rat assessed as minimal motor impairment at 30 mg/kg, po by rotarod test; type: toxicity, organism-based; design: dose 30 mg/kg, route oral; details: in vivo
[26] = test system: Rattus norvegicus; assay: Anticonvulsant activity in albino Sprague-Dawley rat assessed as protection against maximal electroshock-induced seizures at 30 mg/kg, po after 0.25 hrs; type: functional, organism-based; design: dose 30 mg/kg
[27] = test system: Rattus norvegicus; assay: Anticonvulsant activity in albino Sprague-Dawley rat assessed as protection against maximal electroshock-induced seizures at 30 mg/kg, po after 0.5 hrs; type: functional, organism-based; design: dose 30 mg/kg
[28] = test system: Rattus norvegicus; assay: Anticonvulsant activity in albino Sprague-Dawley rat assessed as protection against maximal electroshock-induced seizures at 30 mg/kg, po after 1 hr; type: functional, organism-based; design: dose 30 mg/kg
[29] = test system: Rattus norvegicus; assay: Anticonvulsant activity in albino Sprague-Dawley rat assessed as protection against maximal electroshock-induced seizures at 30 mg/kg, po after 2 hrs; type: functional, organism-based; design: dose 30 mg/kg
[30] = test system: Rattus norvegicus; assay: Anticonvulsant activity in albino Sprague-Dawley rat assessed as protection against maximal electroshock-induced seizures at 30 mg/kg, po after 4 hrs; type: functional, organism-based; design: dose 30 mg/kg
[31] = test system: Mus musculus; assay: Anticonvulsant activity in albino CF1 mouse assessed as protection against maximal electroshock-induced seizures at 30 mg/kg, ip after 0.5 hrs; type: functional, organism-based; design: dose 30 mg/kg
[32] = test system: Mus musculus; assay: Anticonvulsant activity in albino CF1 mouse assessed as protection against maximal electroshock-induced seizures at 100 mg/kg, ip after 4 hrs; type: functional, organism-based; design: dose 100 mg/kg

Q: How did the MED [1] turn out when `FC(F)(F)c1cccc(-c2c[nH]c(-c3cccc(C(F)(F)F)c3)n2)c1` was run?
A: > 300 mg/kg

Q: What about the Activity [2] of the same molecule?
A: Non-toxic

Q: And the Activity [3]?
A: inactive

Q: What about the minimal effective dose [4] of the same molecule?
A: > 300 mg/kg

Q: And the Activity [5]?
A: Non-toxic

Q: And the Activity [6]?
A: Non-toxic

Q: What about the Activity [7] of the same molecule?
A: Non-toxic

Q: And the Activity [8]?
A: Non-toxic

Q: And the Activity [9]?
A: Non-toxic

Q: And the Activity [10]?
A: inactive

Q: What about the Activity [11] of the same molecule?
A: Active

Q: And the Activity [12]?
A: inactive

Q: And the Activity [13]?
A: inactive

Q: What about the Activity [14] of the same molecule?
A: inactive

Q: And the Activity [15]?
A: inactive

Q: And the Activity [16]?
A: inactive

Q: And the Activity [17]?
A: inactive

Q: What about the Activity [18] of the same molecule?
A: Non-toxic

Q: And the Activity [19]?
A: inactive

Q: And the MED [20]?
A: > 300 mg/kg

Q: What about the minimal effective dose [21] of the same molecule?
A: > 300 mg/kg

Q: And the minimal effective dose [22]?
A: 100 mg/kg

Q: And the minimal effective dose [23]?
A: > 300 mg/kg

Q: And the Activity [24]?
A: Non-toxic

Q: `COc1cccc(-c2c[nH]c(-c3ccccc3)n2)c1` was tested. Which MED [1] did it give?
A: 100 mg/kg

Q: And the Activity [2]?
A: Non-toxic

Q: What about the Activity [3] of the same molecule?
A: Active

Q: What about the minimal effective dose [4] of the same molecule?
A: > 300 mg/kg

Q: And the Activity [25]?
A: Non-toxic

Q: What about the Activity [26] of the same molecule?
A: inactive

Q: And the Activity [27]?
A: inactive

Q: What about the Activity [28] of the same molecule?
A: inactive

Q: What about the Activity [29] of the same molecule?
A: inactive

Q: And the Activity [30]?
A: inactive

Q: And the Activity [5]?
A: Non-toxic

Q: And the Activity [7]?
A: Non-toxic

Q: What about the Activity [9] of the same molecule?
A: Non-toxic

Q: What about the Activity [10] of the same molecule?
A: Active

Q: And the Activity [11]?
A: inactive

Q: And the Activity [12]?
A: inactive

Q: What about the Activity [13] of the same molecule?
A: inactive

Q: What about the Activity [14] of the same molecule?
A: inactive

Q: What about the Activity [15] of the same molecule?
A: inactive

Q: And the Activity [16]?
A: inactive

Q: And the Activity [17]?
A: inactive

Q: What about the Activity [18] of the same molecule?
A: Non-toxic

Q: What about the Activity [31] of the same molecule?
A: inactive

Q: And the Activity [19]?
A: inactive

Q: And the MED [20]?
A: > 300 mg/kg

Q: And the minimal effective dose [21]?
A: > 30 mg/kg

Q: What about the minimal effective dose [22] of the same molecule?
A: > 300 mg/kg

Q: What about the minimal effective dose [23] of the same molecule?
A: > 300 mg/kg

Q: What about the Activity [24] of the same molecule?
A: Non-toxic

Q: `FC(F)(F)c1cccc(-c2c[nH]c(-c3ccc(Cl)cc3)n2)c1` was tested. Which MED [1] did it give?
A: > 300 mg/kg

Q: And the Activity [2]?
A: Non-toxic

Q: And the Activity [3]?
A: inactive

Q: And the minimal effective dose [4]?
A: > 300 mg/kg

Q: And the Activity [5]?
A: Non-toxic

Q: And the Activity [6]?
A: Non-toxic

Q: And the Activity [7]?
A: Non-toxic

Q: What about the Activity [8] of the same molecule?
A: Non-toxic

Q: And the Activity [9]?
A: Non-toxic

Q: And the Activity [32]?
A: inactive

Q: What about the Activity [10] of the same molecule?
A: inactive

Q: What about the Activity [11] of the same molecule?
A: inactive

Q: What about the Activity [12] of the same molecule?
A: inactive

Q: What about the Activity [13] of the same molecule?
A: inactive

Q: What about the Activity [14] of the same molecule?
A: inactive

Q: And the Activity [15]?
A: inactive

Q: What about the Activity [16] of the same molecule?
A: inactive

Q: What about the Activity [17] of the same molecule?
A: inactive

Q: What about the Activity [18] of the same molecule?
A: Non-toxic

Q: What about the Activity [31] of the same molecule?
A: inactive

Q: And the Activity [19]?
A: inactive

Q: And the MED [20]?
A: > 300 mg/kg

Q: And the minimal effective dose [21]?
A: > 300 mg/kg

Q: What about the minimal effective dose [22] of the same molecule?
A: > 300 mg/kg

Q: What about the minimal effective dose [23] of the same molecule?
A: > 300 mg/kg

Q: And the Activity [24]?
A: Non-toxic

Q: How did the MED [1] turn out when `Clc1ccc(-c2nc(-c3ccccc3)c[nH]2)cc1` was run?
A: > 300 mg/kg

Q: And the Activity [2]?
A: Non-toxic

Q: And the Activity [3]?
A: inactive

Q: And the minimal effective dose [4]?
A: > 300 mg/kg

Q: What about the Activity [5] of the same molecule?
A: Non-toxic

Q: And the Activity [6]?
A: Non-toxic

Q: And the Activity [7]?
A: Non-toxic

Q: And the Activity [8]?
A: Non-toxic

Q: What about the Activity [9] of the same molecule?
A: Non-toxic

Q: What about the Activity [32] of the same molecule?
A: inactive

Q: What about the Activity [10] of the same molecule?
A: inactive

Q: What about the Activity [11] of the same molecule?
A: inactive

Q: And the Activity [12]?
A: inactive

Q: What about the Activity [13] of the same molecule?
A: inactive

Q: What about the Activity [14] of the same molecule?
A: inactive

Q: And the Activity [15]?
A: inactive

Q: What about the Activity [16] of the same molecule?
A: inactive

Q: What about the Activity [17] of the same molecule?
A: inactive

Q: What about the Activity [18] of the same molecule?
A: Non-toxic

Q: What about the Activity [31] of the same molecule?
A: inactive

Q: What about the Activity [19] of the same molecule?
A: inactive

Q: And the MED [20]?
A: > 300 mg/kg

Q: What about the minimal effective dose [21] of the same molecule?
A: > 300 mg/kg

Q: And the minimal effective dose [22]?
A: > 300 mg/kg

Q: And the minimal effective dose [23]?
A: > 300 mg/kg

Q: And the Activity [24]?
A: Non-toxic
